These results are taken from patent publication US9695193B2, “Inhibitors of Plasmodium falciparum equilibrative nucleoside transporter type I as anti-parasitic compounds” (The Trustees of Columbia University in the City of New York, priority 2013, dated 2017).

Molecules are shown by their SMILES.

This assay addresses T1, PfENT1 (Plasmodium falciparum, UniProt Q8IDM6).
T1 construct: expressed in transfected cells; host or cells: fui1Δ yeast (Saccharomyces cerevisiae), co-expressing GFP
The assay is classed as cell-based. Particulars: primary HTS, compounds at 10 μM, 125 μM 5-FUrd. Here is the method:
A yeast-based high throughput screening (HTS) assay was used to identify compounds that inhibit PfENT1. The compounds described in this application were identified by screening four commercially available, chemical compound libraries obtained from Dr. Donald Landry's laboratory (Department of Medicine, Columbia University). These libraries contain approximately 80,000 unique chemical entities.
In the primary screen the compounds were tested at a concentration of 10 μM. Hits were identified by the growth of fui1Δ yeast expressing PfENT1 and Green Fluorescent Protein (GFP) in the presence of the cytotoxic nucleoside 5-fluorouridine (5-FUrd). 5-FUrd is transported by PfENT1. PfENT1 expressing fui1Δ yeast will only grow in the presence of 125 μM 5-FUrd if a PfENT1 inhibitor blocks the uptake of 5-FUrd into the yeast. Significant yeast growth in the HTS in 384 well plates was determined by two criteria: 1) turbidity as determined by the optical density at 620 nm (OD620) and 2) GFP fluorescence intensity. […] Hits had to be positive by both criteria.

T1 sequence (Q8IDM6 whole entry): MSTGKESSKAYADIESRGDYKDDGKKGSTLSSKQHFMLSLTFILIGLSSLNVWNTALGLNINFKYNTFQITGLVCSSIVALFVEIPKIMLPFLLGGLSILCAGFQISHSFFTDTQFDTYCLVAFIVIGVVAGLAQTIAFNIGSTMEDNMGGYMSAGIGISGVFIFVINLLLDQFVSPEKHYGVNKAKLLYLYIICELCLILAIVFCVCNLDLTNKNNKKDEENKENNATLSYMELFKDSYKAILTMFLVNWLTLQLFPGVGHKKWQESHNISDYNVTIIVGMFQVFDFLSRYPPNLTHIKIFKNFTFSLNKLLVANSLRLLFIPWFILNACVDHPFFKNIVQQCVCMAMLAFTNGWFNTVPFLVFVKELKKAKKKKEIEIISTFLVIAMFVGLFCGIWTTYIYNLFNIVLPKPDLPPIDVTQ

`COc1ccccc1CN1CCN(Cc2ccccn2)CC1` [compound 69, 1-(2-methoxybenzyl)-4-(2-pyridinylmethyl) piperazine]: the “Avg Normalized % maximal activity” value is 6.74%. Take `O=C(Nc1ccc(C(=O)N2CCCCC2)cc1)c1cc2ccccc2oc1=O` [compound 70, 2-oxo-N-[4-(1-piperidinylcarbonyl)phenyl]-2H-chromene-3-carboxamide]: the “Avg Normalized % maximal activity” value stood at 6.71%. As for `O=C(CCCN1C(=O)c2cccc3cccc(c23)C1=O)N1CCCCC1` [compound 71, 2-[4-oxo-4-(1-piperidinyl)butyl]-1H-benzo[de]isoquinoline-1,3(2H)-dione], the figure is 6.67%. As for `COc1cc2c(cc1OC)-c1cc3ccc(OC)c(OC)c3c[n+]1CC2` [compound 72], the figure is 6.56%; as for `COC(=O)c1cc(NC(=O)c2cc3ccccc3o2)ccc1N1CCOCC1` [compound 73, methyl 5-[(1-benzofuran-2-ylcarbonyl)amino]-2-morpholin-4-ylbenzoate], 6.43%. Take `C#C[C@]1(O)CC[C@H]2[C@@H]3CCC4=C(CCC(=O)C4)[C@H]3CC[C@@]21C` [compound 74]: the “Avg Normalized % maximal activity” value is 6.35%. For the compound `Cc1cc(C)cc(C(=O)Nc2cccc(NC(=O)c3ccco3)c2)c1` [compound 75, N-{3-[(3,5-dimethylbenzoyl)amino]phenyl}-2-furamide], the “Avg Normalized % maximal activity” value was 6.27%. As for `O=C(Nc1cccc(NC(=O)c2ccco2)c1)c1cccc(Br)c1` [compound 76, N-{3-[(3-bromobenzoyl)amino]phenyl}-2-furamide], the figure is 6.23%; as for `CC(C(=O)O)c1ccc(-c2ccccc2)c(F)c1` (stereo not shown) [compound 77], 6.18%; as for `COc1ccc(NC(=O)COc2ccc3ccc(=O)oc3c2)cc1` [compound 78, N-(4-methoxyphenyl)-2-[(2-oxo-2H-chromen-7-yl)oxy]acetamide], 6.16%. As for `CCOC(=O)c1ccc(NC(=O)c2nn(CC)cc2Br)cc1` [compound 79, ethyl 4-{[(4-bromo-1-ethyl-1H-pyrazol-3-yl)carbonyl]amino}benzoate], the figure is 6.01%; as for `COc1ccc(Cl)cc1C(=O)Nc1cccc(-c2nnc(-c3ccco3)o2)c1` [compound 80, 5-chloro-N-{3-[5-(2-furyl)-1,3,4-oxadiazol-2-yl]phenyl}-2-methoxybenzamide], 5.99%.

For the compound `C1CCN2C[C@@H]3C[C@@H](CN4CCCC[C@@H]34)[C@H]2C1.O=S(=O)(O)O` [compound 81], the “Avg Normalized % maximal activity” value was determined as 5.81%.

`O=P1(N(CCCl)CCCl)NCCCO1` (stereo not shown) [compound 82]: the “Avg Normalized % maximal activity” value was 5.76%. On to `CCOc1ccccc1C(=O)Nc1nc(C)c(C(=O)N(C)C)s1` [compound 83, 2-[(2-ethoxybenzoyl)amino]-N,N,4-trimethyl-1,3-thiazole-5-carboxamide], for which the “Avg Normalized % maximal activity” value is given as 5.75%. Turning to `NCCc1cc(O)c(O)cc1O` [compound 84], the “Avg Normalized % maximal activity” value came out at 5.72%. For the compound `O=C(Nc1ccc2oc(-c3cccnc3)nc2c1)c1ccc(Br)o1` [compound 85, 5-bromo-N-[2-(3-pyridinyl)-1,3-benzoxazol-5-yl]-2-furamide], the “Avg Normalized % maximal activity” value turned out to be 5.64%. As for `Cc1ccc(C(=O)Nc2ccc(C(=O)N3CCCCC3)cc2)cc1` [compound 86, 4-methyl-N-[4-(1-piperidinylcarbonyl)phenyl]benzamide], the figure is 5.63%. In the case of `COc1ccc(Cl)cc1NC(=O)c1ccc2nccnc2c1` [compound 87, N-(5-chloro-2-methoxyphenyl)-6-quinoxaline-carboxamide], the “Avg Normalized % maximal activity” value was determined as 5.62%.

`COc1ccc(NC(=O)C(C)Oc2ccc3oc(=O)cc(C)c3c2)cc1` (stereo not shown) [compound 88, N-(4-methoxyphenyl)-2-[(4-methyl-2-oxo-2H-chromen-6-yl)oxy]propanamide]: the “Avg Normalized % maximal activity” value is recorded as 5.42%. Consider `COc1cccc(C(=O)Nc2ccc(-c3nc4ncccc4o3)cc2C)c1` [compound 89, 3-methoxy-N-(2-methyl-4-[1,3]oxazolo [4,5-b]pyridin-2-ylphenyl)benzamide], for which the “Avg Normalized % maximal activity” value is 5.35%. As for `CSc1ccccc1C(=O)Nc1nc(=O)c2ccccc2[nH]1` [compound 90, 2-(methylthio)-N-(4-oxo-1,4-dihydro-2-quinazolinyl)benzamide], the “Avg Normalized % maximal activity” value is 5.22%.

Regarding `CCOC(=O)c1ccc(NC(=O)c2nc(SC)ncc2Cl)cc1` [compound 91, ethyl 4-({[5-chloro-2-(methylthio)-4-pyrimidinyl]carbonyl}amino)benzoate], the “Avg Normalized % maximal activity” value is given as 5.19%. On to `COc1ccc(-c2cnc3ccccc3n2)cc1NC(=O)c1cccs1` [compound 92, N-(2-methoxy-5-(2-quinoxalinyl)phenyl]-2-thiophenecarboxamide], for which the “Avg Normalized % maximal activity” value is 5.16%. With `Cc1cc(C)cc(C(=O)Nc2nnc(C)s2)c1` [compound 94, 3,5-dimethyl-N-(5-methyl-1,3,4-thiadiazol-2-yl)benzamide] the figure was 5.01%; with `C[C@H]1CC[C@]2(NC1)O[C@H]1C[C@H]3[C@@H]4CC[C@H]5C[C@@H](O[C@@H]6O[C@H](CO)[C@H](O[C@@H]7O[C@H](CO)[C@@H](O)[C@H](O[C@@H]8OC[C@@H](O)[C@H](O)[C@H]8O)[C@H]7O[C@@H]7O[C@H](CO)[C@@H](O)[C@H](O)[C@H]7O)[C@H](O)[C@H]6O)CC[C@]5(C)[C@H]4CC[C@]3(C)[C@H]1[C@@H]2C` [compound 95], 5.00%. As for `O=C(Nc1cccc(-c2nc3ncccc3o2)c1)c1ccccc1F` [compound 96, 2-fluoro-N-(3-[1,3]oxazolo [4,5-b]pyridin-2-ylphenyl)benzamide], the figure is 4.92%; as for `CNC(=O)c1nc(-c2ccc(Cl)cc2)no1` [compound 97, 3-(4-chlorophenyl)-N-methyl-1,2,4-oxadiazole-5-carboxamide], 4.86%. On to `COC(=O)c1ccccc1NC(=O)c1ccc(NC(=O)C2CCCO2)cc1` (stereo not shown) [compound 99, methyl 2-({4-[(tetrahydro-2-furanylcarbonyl)amino]benzoyl}amino)benzoate], for which the “Avg Normalized % maximal activity” value was found to be 4.83%. Turning to `O=C(Nc1cccnc1)c1cc2cc(C3CC3)cc(C(F)(F)F)n2n1` [compound 100], the “Avg Normalized % maximal activity” value was determined as 4.83%. As for `COc1cc(NC(=O)c2cccc(Br)c2)nc(OC)n1` [compound 101, 3-bromo-N-(2,6-dimethoxy-4-pyrimidinyl)benzamide], the figure is 4.78%; as for `O=C1OC(CO)[C@@H](O)C(O)C1O` (stereo partly shown) [compound 102], 4.76%. For `O=C(Nc1cc(-c2nc3ccccc3[nH]2)ccc1Cl)c1ccco1` [compound 103, N-[5-(1H-benzimidazol-2-yl)-2-chlorophenyl]-2-furamide], the “Avg Normalized % maximal activity” value turned out to be 4.74%. Turning to `Cc1cccc(N2C(=O)CC(NC3CCCC3)C2=O)c1` (stereo not shown) [compound 104, 3-(cyclopentylamino)-1-(3-methylphenyl)-2,5-pyrrolidinedione], the “Avg Normalized % maximal activity” value worked out at 4.72%. Turning to `Cc1ccccc1C(=O)Nc1ccc(-c2nc3ncccc3o2)cc1` [compound 105, 2-methyl-N-(4-[1,3]oxazolo[4,5-b]pyridin-2-ylphenyl)benzamide], the “Avg Normalized % maximal activity” value is given as 4.70%. For `COc1ccc(NC(=O)C2Cc3ccccc3C(=O)O2)cc1` (stereo not shown) [compound 106, N-(4-methoxyphenyl)-1-oxo-3,4-dihydro-1H-isochromene-3-carboxamide], the “Avg Normalized % maximal activity” value was 4.69%. On to `COc1ccc(N(CC(=O)Nc2ccc(Cl)cc2)S(C)(=O)=O)c(OC)c1` [compound 107, N~1~-(4-chlorophenyl)-N~2~-(2,4-dimethoxyphenyl)-N~2~-(methylsulfonyl)glycinamide], for which the “Avg Normalized % maximal activity” value worked out at 4.67%. With `CCc1nnc(NC(=O)c2sc3nc(C)cc(COC)c3c2N)s1` [compound 108, 3-amino-N-(5-ethyl-1,3,4-thiadiazol-2-yl)-4-(methoxymethyl)-6-methylthieno [2,3-b]pyridine-2-carboxamide] the figure was 4.66%; with `CNC[C@H](O)[C@@H](O)[C@H](O)[C@H](O)CO` [compound 109], 4.65%. With `O=C(Nc1ccc(-c2nnc(-c3ccco3)o2)cc1)C1CCCCC1` [compound 110, N-{4-[5-(2-furyl)-1,3,4-oxadiazol-2-yl]phenyl} cyclohexane-carboxamide], the “Avg Normalized % maximal activity” value amounted to 4.61%. With `COCCNCCOc1ccc(C(C)(C)C)cc1C.O=C(O)C(=O)O` [compound 111, [2-(4-tert-butyl-2-methylphenoxy)ethyl](2-methoxyethyl)amine oxalate] the figure was 4.58%; with `COC(=O)c1ccccc1NC(=O)c1cccc(NC(=O)c2cccs2)c1C` [compound 112, methyl 2-({2-methyl-3-[(2-thienylcarbonyl)amino]benzoyl}amino)benzoate], 4.55%; with `CCSc1nnc(NC(=O)c2cccc(OC)c2)s1` [compound 113, N-[5-(ethylthio)-1,3,4-thiadiazol-2-yl]-3-methoxybenzamide], 4.39%.
